From US20040219232A1, “Methods and compounds for treating malabsorption diseases and inflammatory conditions of the gastrointestinal tract” (Zengen, Inc., priority 2003, published 2004)
Entries after “also recorded” stand apart in the source; their conditions may differ. Where no end group is shown, it is not given here. [ ]: non-standard residue; d: D form. dNle = CCCC[C@@H](N)C(=O)O

Assays:
[1] = compared with L-form tripeptide; cited from earlier work
[2] = Potency/efficacy of α-MSH fragments and derivatives compared to parent α-MSH (anti-inflammatory and/or antipyretic properties); settings: discovered by the inventors; no method or data given
Description: It is contemplated that derivatives of α-MSH will have analogous function. It is understood that derivatives of α-MSH means functionally equivalent peptides. […] Thus, α-MSH derivative would include, among others, the partial segments of the 13 amino acid peptide. Specifically, α-MSH is composed of the following sequence of amino acids: SYSMEHFRWGKPV (SEQ ID. NO. 1). […] These derivatives of the parent α-MSH are functional equivalents.

[3] = has been shown; no method given; cited from earlier work
fever = settings: compared with α-MSH; cited from earlier work
[4] = system: IL-6 production by gliadin-stimulated duodenal mucosa; experiment: Gliadin-stimulated cytokine production by duodenal mucosa specimens incubated 24 h in vitro, with or without synthetic α-MSH; assay type: cell-based, human; settings: co-incubation with α-MSH 10^−5 M, controls, untreated celiac and treated celiac patients (all groups), ELISA
Description: (§1) Four biopsy specimens from the distal duodenum were obtained during upper gastrointestinal endoscopy. Two of such specimens were fixed in 10% formalin and paraffin embedded for standard histological examination. The remaining two specimens from each subject were available for this research and were allocated for either 1) RT-PCR and immunohistochemical studies (N=20: 9 celiac, 7 celiac on diet, 4 normal); 2) cytokine production in vitro in the presence or absence of α-MSH(N=22: 11 celiac, 6 celiac on diet, 5 normal); or 3) cytokine production in vitro after gliadin stimulation in the presence or absence of α-MSH(N=25: 14 celiac, 6 celiac on diet, 5 normal).
(§2) A series of 47 specimen pairs were used to evaluate cytokine production by celiac mucosa in vitro and the influence of α-MSH on such production. […]
(§3) α-MSH was measured using a double-antibody radioimmunoassay (RIA) method (Eurodiagnostica, Malmo, Sweden); the sensitivity calculated from a decrease in binding of 2 SD in the zero standard was 4.8 pg/ml and the cross-reactivity with other POMC peptides (ACTH [1-24], ACTH [1-39], β-MSH, γ-MSH) is <0.002%. IL-1β, IL-6, and TNF-α were determined using commercial ELISA methods (Amersham Pharmacia Biotech, Little Chalfont, UK).
(§4) Values were expressed as means±SEM. […]

[5] = system: IL-1β, IL-6 and TNF-α production by celiac mucosa; experiment: Spontaneous (non-stimulated) cytokine production by duodenal mucosa specimens incubated 24 h in vitro, with or without synthetic α-MSH; assay type: cell-based, human; settings: α-MSH 10^−5 M in incubation medium, no gliadin
Description: as §1, §2, §3, §4

Substance: Ac-[D-K11]-α-MSH 11-13-NH2
- Potency relative to the L-form of the tripeptide α-MSH (11-13) [1]: same general potency

Substance: His-DNle-Arg-Trp-Phe-Lys-Pro-Val (H[dNle]RWFKPV)
- Potency over the parent α-MSH and its derivatives [2]: increased potency

Substance: KPV
- Potency/efficacy compared to parent α-MSH [3]: as potent or more potent than the parent α-MSH

Substance: [Nle^4,D-Phe^7]-α-MSH
- Potency in reducing fever relative to the parent peptide α-MSH (fever): approximately ten times more potent

Substance: SYSMEHFRWGKPV [α-MSH, 13 amino acid peptide produced by post-translational processing of pro-opiomelanocortin; synthetic peptide used in the tests]
- IL-6 production/release in supernatants of gliadin-stimulated duodenal specimens [4]: significantly decreased; also recorded: substantial reduction; also recorded: significantly reduced; also recorded: statistically significant inhibition
- Non-stimulated 24 h production of IL-1β, IL-6 and TNF-α by celiac mucosa after addition of α-MSH [5]: no change
